In one assay the target is Human Full Length PARG (Homo sapiens (Human), UniProt Q86W56). Put plainly: PARG in vitro enzyme assay (TR-FRET). It counts as biochemical. As to conditions: read-out: PARG_EC50_ENZYME. As for the experimental part: PARG In vitro assays were conducted in a total volume of 15 ul in a standard 384 well format. 5 ul of Human Full Length PARG (Produced internally by Astra Zeneca), used at a final reaction concentration of […], was added to 5 ul of Ribosylated PARP substrate (also produced internally by Astra Zeneca) at final reaction concentration of 4.5 nM in assay buffer (50 mM Tris pH7.4, 0.1 mg/ml BSA, 3 mM EDTA, 0.4 mM EGTA, 1 mM DTT, 0.01% Tween 20, 50 mM KCl). The reaction was incubated at room temperature for 10 minutes and then 5 ul detection reagent was added. Detection Reagent consists of 42 nM MAb Anti-6HIS XL665 (CisBio: 61 HISXLB) and 2.25 nM Streptavidin Europium Cryptate (CisBio: 610SAKLB), both at 3× working stock concentrations (final concentrations of 14 nM and 0.75 nM respectively), in a detection buffer of 50 mM Tris pH7.4, BSA at 0.1 mg/ml and KF at 100 mM. Following incubation at room temperature for 60 minutes in the dark, TR-FRET signal was measured at Ex 340 and Em 665 and Em 620. A ratio was calculated as Em665/EM620×104 for each well and used to calculate percent inhibition for test compounds.
(In TR-FRET formats the signal depends on donor and acceptor labels being close together.)

The next assay concerns the target PARG in HeLa cell line (Homo sapiens (Human), UniProt Q86W56). The assay can be described thus: PARG cell assay (nuclear PAR chains after MMS, immunofluorescence). As to conditions: HeLa cells, MMS 50 μg/mL; read-out: PARG Cell IC50 Geomean. It counts as cell-based. Here is the method: This method is based on the detection of endogenous levels of poly (ADP) ribose chains present in the nucleus of HeLa cell line using indirect immunofluorescence. MMS stimulation increases PAR chains for up to 25 mins. After that point, PARG is active and breaks down the PAR chains, until by one hour after stimulation no PAR chains are detectable. Inhibition of PARG maintains PAR chains.
Briefly, following compound treatment and treatment with the DNA damaging agent methylmethanesulfonate (MMS), the cell monolayer is fixed, then permeabilised and incubated with a mouse monoclonal antibody raised against multimers of poly(ADP) ribose. After an overnight incubation, excess antibody is removed by washing and an Alexafluor 488-linked secondary antibody which recognises the mouse monoclonal is added together with a nuclear stain (Hoechst 33342). Images of the cells are then captured and analysed on a High Content Screening platform and the total intensity of the nuclear fluorescent signal at […] is quantified.
HeLa cells, seeded in 384-well plates, at 4000/well in 30 μL RPMI 1640 media, supplemented with 10% FBS and 2 mM Glutamax, were incubated overnight at 37° C., 5% CO2.
The following day, cells were dosed in quadruplicate with compound (10 point dose response) and incubated for 1 h at 37° C., 5% CO2.
At the end of the 1 h dosing period, MMS was added to duplicates at a final concentration of 50 μg/mL, for a further hour.
Media was tipped off and the cells fixed with 50 μL ice-cold 95% MetOH/PBS for 15 mins at −20° C. Following a PBS wash, 50 μL PBS/0.1% Triton was added to the cells for 20 mins. Following another PBS wash, anti-PAR antibody (Calbiochem AM80) was diluted 1:4000 in a buffer (PBS+0.5% FBS+0.05% Tween20) and added to the cells and incubated overnight at 4° C.
The following day, cells were washed three times with PBS and then incubated for 1 hr with secondary antibody (Alexa Fluor® 488 goat anti mouse IgG (H+L)) diluted 1:1000 and Hoechst diluted 1:5000 in buffer (5% FBS in PBS+0.05% Tween20).
Cells were washed three times with PBS and the plate sealed with a light-proof seal.
Images of the cells were captured on a ThermoFisher Celllnsight and the mean total intensity of spots fluorescent at 485 nm in the nucleus was reported.

pEC50, pIC50: −log10 of the molar value.

Chain of PARG in HeLa cell line (Q86W56 whole entry): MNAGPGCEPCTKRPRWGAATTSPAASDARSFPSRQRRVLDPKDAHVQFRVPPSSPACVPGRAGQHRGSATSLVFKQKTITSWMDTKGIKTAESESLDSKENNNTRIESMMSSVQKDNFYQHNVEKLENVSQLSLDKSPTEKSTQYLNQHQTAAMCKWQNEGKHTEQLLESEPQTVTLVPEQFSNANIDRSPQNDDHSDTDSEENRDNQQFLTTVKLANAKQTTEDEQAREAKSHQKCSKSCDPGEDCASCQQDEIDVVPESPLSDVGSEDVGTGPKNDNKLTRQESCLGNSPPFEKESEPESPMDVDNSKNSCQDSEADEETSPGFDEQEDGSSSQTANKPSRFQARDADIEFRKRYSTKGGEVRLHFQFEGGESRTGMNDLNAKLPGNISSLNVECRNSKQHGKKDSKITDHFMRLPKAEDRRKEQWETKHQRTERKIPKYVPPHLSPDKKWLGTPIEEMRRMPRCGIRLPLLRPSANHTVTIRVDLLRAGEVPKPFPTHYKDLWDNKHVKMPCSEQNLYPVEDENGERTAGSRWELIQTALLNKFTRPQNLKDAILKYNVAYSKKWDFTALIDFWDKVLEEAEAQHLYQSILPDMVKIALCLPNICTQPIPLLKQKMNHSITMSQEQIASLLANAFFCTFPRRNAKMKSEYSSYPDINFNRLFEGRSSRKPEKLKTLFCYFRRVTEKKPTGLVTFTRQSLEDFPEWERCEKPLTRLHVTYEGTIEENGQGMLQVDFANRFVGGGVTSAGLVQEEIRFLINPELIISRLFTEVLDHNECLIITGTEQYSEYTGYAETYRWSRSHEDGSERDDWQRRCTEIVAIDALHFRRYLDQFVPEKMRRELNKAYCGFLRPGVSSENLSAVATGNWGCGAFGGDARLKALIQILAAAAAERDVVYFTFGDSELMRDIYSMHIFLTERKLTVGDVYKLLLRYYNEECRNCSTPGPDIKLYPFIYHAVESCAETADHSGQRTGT
Chain of Human Full Length PARG (Q86W56 whole entry): as above

The pIC50 is −log10 of the IC50, conventionally taken in molar units. For `C#CCn1c(=O)n(-c2nnc(C(F)F)s2)c2cc(S(=O)(=O)NC3(CF)CC3)ccc21` [Example 193, 3-[5-(Difluoromethyl)-1,3,4-thiadiazol-2-yl]-N-[1-(fluoromethyl)cyclopropyl]-2-oxo-1-prop-2-ynyl-benzimidazole-5-sulfonamide], at Human Full Length PARG, the pEC50 is 6.82. The negative logarithm of the IC50 (pIC50) on PARG in HeLa cell line was 7.40.
Consider `Cc1nnc(-n2c(=O)n(CCN(C)C)c3ccc(S(=O)(=O)NC4(CF)CC4)cc32)s1` [Example 188, 1-[2-(Dimethylamino)ethyl]-N-[1-(fluoromethyl)cyclopropyl]-3-(5-methyl-1,3,4-thiadiazol-2-yl)-2-oxo-benzimidazole-5-sulfonamide], for which the pEC50 on Human Full Length PARG was 6.21. For the same molecule, the pIC50 at PARG in HeLa cell line was 6.46.
Consider `Cn1c(=O)n(-c2nnc(C(F)F)o2)c2cc(S(=O)(=O)NC3(C)CC3)c(F)cc21` [Example 209, 3-[5-(Difluoromethyl)-1,3,4-oxadiazol-2-yl]-6-fluoro-1-methyl-N-(1-methylcyclopropyl)-2-oxo-benzimidazole-5-sulfonamide], for which the pEC50 on Human Full Length PARG was 6.03. In addition, at PARG in HeLa cell line, the pIC50 is 6.66.
The corresponding values for `Cc1cc(Cn2c(=O)n(-c3nnc(C)s3)c3cc(S(=O)(=O)NC4(C)CC4)ccc32)n(C)n1` [Example 84] are 6.44 and 6.57.
For `COCCCn1c(=O)n(-c2nc(C)ns2)c2cc(S(=O)(=O)NC3(CF)CC3)ccc21` [Example 185, N-[1-(Fluoromethyl)cyclopropyl]-1-(3-methoxypropyl)-3-(3-methyl-1,2,4-thiadiazol-5-yl)-2-oxo-benzimidazole-5-sulfonamide], in that order: 5.42 and 6.13.
Regarding `CCOC(=O)n1c(=O)n(Cc2sc(C)nc2C)c2ccc(S(=O)(=O)NC3(C)CC3)cc21` [Example 112], the pEC50 on Human Full Length PARG is 6.85. Moreover, the pIC50 on PARG in HeLa cell line was 6.07.
`Cn1c(=O)n(-c2nnc(C(F)F)o2)c2cc(S(=O)(=O)NC3(CF)CC3)ccc21` [Example 196, 3-[5-(Difluoromethyl)-1,3,4-oxadiazol-2-yl]-N-[1-(fluoromethyl)cyclopropyl]-1-methyl-2-oxo-benzimidazole-5-sulfonamide]: at Human Full Length PARG, the pEC50 was 6.10. Moreover, the negative logarithm of the IC50 (pIC50) at PARG in HeLa cell line was 6.33.
In the case of `Cc1nnc(-n2c(=O)n(CC#N)c3ccc(S(=O)(=O)NC4(CF)CC4)cc32)s1` [Example 178, 1-(Cyanomethyl)-N-[1-(fluoromethyl)cyclopropyl]-3-(5-methyl-1,3,4-thiadiazol-2-yl)-2-oxo-benzimidazole-5-sulfonamide], the pEC50 on Human Full Length PARG was 6.17. In addition, at PARG in HeLa cell line, the negative logarithm of the IC50 (pIC50) is 6.04.
For `COCCn1c(=O)n(-c2nnc(C)s2)c2cc(S(=O)(=O)NC3(CF)CC3)ccc21` [Example 160, N-[1-(Fluoromethyl)cyclopropyl]-1-(2-methoxyethyl)-3-(5-methyl-1,3,4-thiadiazol-2-yl)-2-oxo-benzimidazole-5-sulfonamide], in that order: 6.21 and 6.34.
`Cc1nnc(-n2c(=O)n(CCCN(C)C)c3ccc(S(=O)(=O)NC4(C)CC4)cc32)s1` [Example 135]: the pEC50 at Human Full Length PARG is 6.29. Besides, at PARG in HeLa cell line, the pIC50 was 6.43.
The corresponding values for `Cc1nnc(-n2c(=O)n(CCC(N)=O)c3ccc(S(=O)(=O)NC4(C)CC4)cc32)s1` [Example 154] are 6.21 and 5.04.
For the molecule `Cc1cnc(-n2c(=O)n(Cc3sc(C)nc3C)c3ccc(S(=O)(=O)NC4(C)CC4)cc32)s1` [Example 107], the pEC50 at Human Full Length PARG is 7.07. The pIC50 on PARG in HeLa cell line is 6.80.
`COCCn1c(=O)n(-c2nc(C)ns2)c2cc(S(=O)(=O)NC3(CF)CC3)ccc21` [Example 184, N-[1-(Fluoromethyl)cyclopropyl]-1-(2-methoxyethyl)-3-(3-methyl-1,2,4-thiadiazol-5-yl)-2-oxo-benzimidazole-5-sulfonamide]: the pEC50 at Human Full Length PARG is 5.86. Besides, at PARG in HeLa cell line, the negative-log IC50 (pIC50) is 6.15.
Regarding `Cc1nsc(-n2c(=O)n(C)c3ccc(S(=O)(=O)NC4(CF)CC4)cc32)n1` [Example 177], on PARG in HeLa cell line, the pIC50 is 5.60.
For `C#CCn1c(=O)n(C)c2cc(S(=O)(=O)NC3(C)CC3)ccc21` [Example 17], the pEC50 on Human Full Length PARG was 5.32.

The record behind these values is patent US10508086B2 (CANCER RESEARCH TECHNOLOGY LIMITED, priority 2014, dated 2019).
